Experimental data published in patent publication US20060051295A1, “Estrogen receptor interaction with a transcription factor” (priority 2002, published 2006).

Legend:
cRel + ER alpha = assay: Transrepression of c-Rel induced reporters, U-2 OS co-transfected with ERα; type: cell-based, human
Method: Next was determined whether transrepression by ER is limited to particular NF-κB types, such as c-Rel or RelA, by overexpression of these NF-κB proteins in U-2 OS cells (Table 2). Again, the promoter-reporter constructs for the E-selectin, ICAM and VCAM genes were used in these experiments. Significant activation of these reporters by overexpression of c-Rel was observed. This activation was strongly and reproducibly transrepressed by both ERα and ERβ (Table 2).
Table 2. Estrogen-dependent transrepression of the promoters from E-selectin, VCAM and ICAM and a synthetic NF-κB responsive reporter, measured as the amount of luciferase activity. Transient (co-)transfections of ERα (or ERβ) and reporter were performed in U-2 OS cells. Reporter activity was induced by cellular exposure to Il-1β or by co-transfection of the NF-κB genes c-Rel or RelA. […] For detailed information on the composition of the reporters used, see appendix 1. The hyphen (-) in the table indicates the test with cells without transfected cDNA and no additives in medium; n.d. means: not determined.
For transient transfections, cells were seeded in 6-well plates (2.10^5 cells/well). After two or three days the cells were transfected with reporter, expression vectors and β-galactosidase control vector. Two different experimental settings were used. For testing transrepression of IL-1β induced promoter activity, cells were transfected with 1 μg reporter construct, 1 μg expression vector (containing either ERα, ERβ or GR), and 0.25 μg of β-galactosidase control plasmid. For testing transrepression in combination with c-Rel or ReLA overexpression, cells were transfected with 1 μg reporter construct, 1 μg expression vector (containing either ERα, ERβ or GR) and 0.1 or 1.0 μg expression vector containing c-Rel or RelA and 0.25 μg of β-galactosidase control vector. Equivalent amounts of DNA were obtained by adding the appropriate expression vector that lacks an insert. Transient transfection was performed using lipofectin reagent (Life Technologies). […] The transfected cells were incubated overnight with test compounds prior to cell lysis. Measurement of luciferase and P-galactosidase activity were performed using respectively the luciferase assay system (Promega) and Galacto-light plus (Tropix) according to the manufacturers' protocols and measured on the Victor 1420 multilabel counter, Wallac. Detection of β-galactosidase activity was used as a control for transfection efficiency.

[1] = system: E-selectin (ELAM) gene expression; assay: Rabbit atherogenic diet model, E-selectin mRNA in aorta bow (RNase protection)
IL-6 production = assay: IL-6 secretion by U-2OS cells stably expressing ERα (sandwich ELISA); type: cell-based, human; conditions: U-2OS-ERα, IL-1β 125 pg/ml + IFNγ 10 ng/ml
Source text: Estrogens maintain the balance between bone resorption and formation by inhibiting the production of cytokines by osteoblasts that stimulate osteoclast activity and thus bone resorption. We analysed the relevance of ER NF-κB transrepression on IL-6 production in more depth. When the pre-osteoblast cell line U-2 OS was stimulated with cytokines such as IL-1β, production of endogenous IL-6 protein is increased. However, when U-2OS cells are also exposed to IL-1β and estrogens, the increased production of IL-6 is repressed [Table 8].
Numbers are luminescence in counts per sec reflecting IL-6 produced by the cells
Secretion of endogenously produced IL-6 was measured by sandwich ELISA as outlined in Material and Methods.
For studying repression of human IL-6 secreted by U-2 OS cells that stably overexpress ERα (U-2 OS-ERα cells) a standard sandwich ELISA was used (ELISA kit of R&D systems #DY206). Cells were plated in 24 or 96 wells plates in M505+dextran-coated charcoal stripped serum (i.e. 10% BCTS) and allowed to grow to 90% confluency.
ELISA was performed according to the protocol of the manufacturer and as briefly described below. After overnight incubation of the cells with compounds in the appropriate concentration, the supernatants were transferred to 96 wells plates that had been coated overnight with anti-IL-6 capture antibody. Captured IL-6 was subsequently detected using a biotinylated anti-IL-6 detection antibody and Streptavidin-AP. Il-6 concentrations per well were subsequently quantified using the chemoluminescent substrate CSPD (Elisa-Light™, #EL100CY, Tropix), after which luminescence was determined in a Victor multilabel counter (Wallac).

Structure (SMILES): C[C@]12CC[C@@H]3c4ccc(O)cc4CC[C@H]3[C@@H]1CC[C@@H]2O [Org E2, 17β-estradiol]
- luciferase activity, 3*NFkB-reporter (cRel + ER alpha): 5140
- luciferase activity, ELAM+ reporter (cRel + ER alpha): 3256
- luciferase activity, ELAM− reporter (cRel + ER alpha): 569
- luciferase activity, ICAM reporter (cRel + ER alpha): 3514
- luciferase activity, VCAM reporter (cRel + ER alpha): 259
- ELAM mRNA level (RNase protection, divided by GAPDH signal) ([1]; diet 2 weeks, 4 hours after 3 μg/kg s.c.): 0
- ELAM mRNA level (RNase protection, divided by GAPDH signal) ([1]; diet 2 weeks, 12 hours after 3 μg/kg s.c.): 0.0003897
- ELAM mRNA level (RNase protection, divided by GAPDH signal) ([1]; diet 4 weeks, 12 hours after 3 μg/kg s.c.): 0
- ELAM mRNA level (RNase protection, divided by GAPDH signal) ([1]; diet 8 weeks, 4 hours after 3 μg/kg s.c.): 0.0006813
- ELAM mRNA level (RNase protection, divided by GAPDH signal) ([1]; diet 18 weeks, 4 hours after 3 μg/kg s.c.): 0.002788
- ELAM mRNA level (RNase protection, divided by GAPDH signal) ([1]; diet 18 weeks, 12 hours after 3 μg/kg s.c.): 0.0008307
- Il-6 production (luminescence) (IL-6 production; E2 0.001 nM): 136039 counts per sec
- Il-6 production (luminescence) (IL-6 production; E2 0.01 nM): 79230 counts per sec
- Il-6 production (luminescence) (IL-6 production; E2 0.1 nM): 50375 counts per sec
- Il-6 production (luminescence) (IL-6 production; E2 1 nM): 41070 counts per sec
